{"source": "ChEMBL document CHEMBL4725344", "about": "“Development of Highly Potent Carbazole Amphiphiles as Membrane-Targeting Antimicrobials for Treating Gram-Positive Bacterial Infections” (J Med Chem, 2020)", "key": {"[1]": {"system": "Staphylococcus aureus", "experiment": "Antibacterial activity against Staphylococcus aureus ATCC 29213 measured after 24 hrs by microplate reader analysis", "format": "functional"}, "[2]": {"system": "Staphylococcus aureus", "experiment": "Antibacterial activity against methicillin-resistant Staphylococcus aureus N315 measured after 24 hrs by microplate reader analysis", "format": "functional"}, "[3]": {"system": "Staphylococcus aureus", "experiment": "Antibacterial activity against methicillin-resistant Staphylococcus aureus NCTC 10442 measured after 24 hrs by microplate reader analysis", "format": "functional"}, "[4]": {"experiment": "Hemolytic activity in rabbit erythrocytes measured after 1 hr by microplate reader analysis", "format": "ADME, cell-based, Oryctolagus cuniculus, Erythrocyte"}, "[5]": {"experiment": "Selectivity index, ratio of HC50 for rabbit erythrocytes to MIC for Staphylococcus aureus ATCC 29213", "format": "toxicity", "details": "read-out: Selectivity Index"}, "[6]": {"experiment": "Selectivity index, ratio of HC50 for rabbit erythrocytes to MIC for methicillin-resistant Staphylococcus aureus N315", "format": "toxicity", "details": "read-out: Selectivity Index"}, "[7]": {"experiment": "Selectivity index, ratio of HC50 for rabbit erythrocytes to MIC for methicillin-resistant Staphylococcus aureus NCTC 10442", "format": "toxicity", "details": "read-out: Selectivity Index"}, "[8]": {"experiment": "Hemolytic activity in rabbit erythrocytes assessed as hemolysis at 200 ug/ml measured after 1 hr by microplate reader analysis relative to control", "format": "ADME, cell-based, Oryctolagus cuniculus, Erythrocyte", "details": "at 200 µg/mL, read-out: Activity"}, "[9]": {"system": "Staphylococcus aureus", "experiment": "Bactericidal activity against Staphylococcus aureus ATCC 29213 assessed as log reduction in bacterial count at 8 times MIC preincubated for 1 hr followed by replating on MHA medium measured after 24 hrs by time kill assay", "format": "functional", "details": "time 25 hrs"}, "[10]": {"system": "Staphylococcus aureus", "experiment": "Bactericidal activity against Staphylococcus aureus ATCC 29213 assessed as log reduction in bacterial count at 4 times MIC preincubated for 4 hrs followed by replating on MHA medium measured after 24 hrs by time kill assay", "format": "functional", "details": "time 28 hrs"}, "[11]": {"system": "Staphylococcus aureus", "experiment": "Antibacterial activity against Staphylococcus aureus ATCC 29213 at 0.5 times MIC passaged daily for 21 days", "format": "functional, organism-based", "details": "time 21.0 day"}, "[12]": {"system": "Cell membrane", "experiment": "Induction of inner membrane permeabilization in Staphylococcus aureus ATCC 29213 measured for 1 hr by SYTOX green dye based fluorescence assay", "format": "subcellular"}, "[13]": {"system": "Cell membrane", "experiment": "Induction of inner membrane permeabilization in methicillin-resistant Staphylococcus aureus NCTC 10442 measured for 1 hr by SYTOX green dye based fluorescence assay", "format": "subcellular"}, "[14]": {"system": "Cell membrane", "experiment": "Disruption of cell membrane integrity in Staphylococcus aureus ATCC 29213 assessed as increase in red fluorescence at 8 times MIC measured after 2 hrs by Syto9/propidium iodide Live/dead staining based laser confocal microscopic analysis", "format": "subcellular"}, "[15]": {"system": "Cell membrane", "experiment": "Induction of cell membrane damage in Staphylococcus aureus ATCC 29213 assessed as wrinkle formation at 8 times MIC measured after 2 hrs by SEM analysis", "format": "subcellular"}, "[16]": {"system": "Cell membrane", "experiment": "Induction of cell membrane damage in Staphylococcus aureus ATCC 29213 assessed as membrane perforation at 8 times MIC measured after 2 hrs by SEM analysis"}, "[17]": {"system": "Cell membrane", "experiment": "Induction of cell membrane damage in Staphylococcus aureus ATCC 29213 assessed as membrane perforation at 8 times MIC measured after 2 hrs by TEM analysis"}, "[18]": {"system": "Staphylococcus aureus", "experiment": "Antibacterial activity against Staphylococcus aureus ATCC 29213 measured after 24 hrs in presence of LTA by microplate reader analysis", "format": "functional"}, "[19]": {"system": "Staphylococcus aureus", "experiment": "Antibacterial activity against methicillin-resistant Staphylococcus aureus NCTC 10442 measured after 24 hrs in presence of LTA by microplate reader analysis", "format": "functional"}, "[20]": {"system": "Bacillus subtilis", "experiment": "Displacement of BODIPYTM-TR-cadaverine from Bacillus subtilis LTA at MIC measured after 30 mins by fluorescence assay relative to control"}, "[21]": {"system": "Bacillus subtilis", "experiment": "Displacement of BODIPYTM-TR-cadaverine from Bacillus subtilis LTA at 2 times MIC measured after 30 mins by fluorescence assay relative to control"}, "[22]": {"system": "Bacillus subtilis", "experiment": "Displacement of BODIPYTM-TR-cadaverine from Bacillus subtilis LTA at 4 times MIC measured after 30 mins by fluorescence assay relative to control"}, "[23]": {"system": "Bacillus subtilis", "experiment": "Displacement of BODIPYTM-TR-cadaverine from Bacillus subtilis LTA at 8 times MIC measured after 30 mins by fluorescence assay relative to control"}, "[24]": {"experiment": "Cytotoxicity against mouse corneal epithelial cells assessed as cell viability at […] ug/ml measured after 24 hrs by CCK8 assay relative to control", "format": "cell-based", "details": "dose 1.56 µg/ml, read-out: Activity"}, "[25]": {"experiment": "Cytotoxicity against mouse corneal epithelial cells assessed as cell viability at 3.125 ug/ml measured after 24 hrs by CCK8 assay relative to control", "format": "cell-based", "details": "at 3.125 µg/mL, read-out: Activity"}, "[26]": {"experiment": "Cytotoxicity against mouse corneal epithelial cells assessed as cell viability at 6.25 ug/ml measured after 24 hrs by CCK8 assay relative to control", "format": "cell-based", "details": "at 6.25 µg/mL, read-out: Activity"}, "[27]": {"experiment": "Cytotoxicity against mouse corneal epithelial cells assessed as cell viability at 12.5 ug/ml measured after 24 hrs by CCK8 assay relative to control", "format": "cell-based", "details": "at 12.5 µg/mL, read-out: Activity"}, "[28]": {"experiment": "Cytotoxicity against mouse corneal epithelial cells assessed as cell viability […] measured after 24 hrs by CCK8 assay relative to control", "format": "cell-based", "details": "dose 25 µg/ml, read-out: Activity"}, "[29]": {"experiment": "Cytotoxicity against mouse corneal epithelial cells assessed as cell viability at 50 ug/ml measured after 24 hrs by CCK8 assay relative to control", "format": "cell-based", "details": "at 50 µg/mL, read-out: Activity"}, "[30]": {"experiment": "Cytotoxicity against mouse corneal epithelial cells assessed as cell viability at 100 ug/ml measured after 24 hrs by CCK8 assay relative to control", "format": "cell-based", "details": "at 100 µg/mL, read-out: Activity"}, "[31]": {"experiment": "Cytotoxicity against mouse J774.A1 cells assessed as cell viability at […] ug/ml measured after 24 hrs by CCK8 assay relative to control", "format": "cell-based", "details": "dose 1.56 µg/ml, read-out: Activity"}, "[32]": {"experiment": "Cytotoxicity against mouse J774.A1 cells assessed as cell viability at 3.125 ug/ml measured after 24 hrs by CCK8 assay relative to control", "format": "cell-based", "details": "at 3.125 µg/mL, read-out: Activity"}, "[33]": {"experiment": "Cytotoxicity against mouse J774.A1 cells assessed as cell viability at 6.25 ug/ml measured after 24 hrs by CCK8 assay relative to control", "format": "cell-based", "details": "at 6.25 µg/mL, read-out: Activity"}, "[34]": {"experiment": "Cytotoxicity against mouse J774.A1 cells assessed as cell viability at 12.5 ug/ml measured after 24 hrs by CCK8 assay relative to control", "format": "cell-based", "details": "at 12.5 µg/mL, read-out: Activity"}, "[35]": {"experiment": "Cytotoxicity against mouse J774.A1 cells assessed as cell viability at 25 ug/ml measured after 24 hrs by CCK8 assay relative to control", "format": "cell-based", "details": "at 25 µg/mL, read-out: Activity"}, "[36]": {"experiment": "Cytotoxicity against mouse J774.A1 cells assessed as cell viability at 50 ug/ml measured after 24 hrs by CCK8 assay relative to control", "format": "cell-based", "details": "at 50 µg/mL, read-out: Activity"}, "[37]": {"experiment": "Cytotoxicity against mouse J774.A1 cells assessed as cell viability at 100 ug/ml measured after 24 hrs by CCK8 assay relative to control", "format": "cell-based", "details": "at 100 µg/mL, read-out: Activity"}, "[38]": {"experiment": "Cytotoxicity against mouse corneal epithelial cells assessed as reduction in cell viability measured after 24 hrs by CCK8 assay", "format": "cell-based"}, "[39]": {"experiment": "Cytotoxicity against mouse J774.A1 cells assessed as reduction in cell viability measured after 24 hrs by CCK8 assay", "format": "cell-based"}, "[40]": {"system": "Staphylococcus aureus", "experiment": "Antibacterial activity against Staphylococcus aureus ATCC 29213 infected in cyclophosphamide-immunosuppressed C57BL6 mouse cornea assessed as log reduction in corneal bacterial count at 0.5% administered as topical solution for 4 times per day for 3 days and measured post-last dose by standard plate counting method", "format": "functional", "details": "time 3 day"}, "[41]": {"experiment": "Toxicity in C57BL6 mouse assessed as corneal damage at 0.5% administered as topical solution for 4 times per day for 3 days and measured post-last dose by fluorescein sodium staining based slit-lamp biomicroscopic method", "details": "in vivo, topical_or_ocular, 72 h, time 3 day"}}, "note": "The source made the active and inactive calls. The calls are words filed in the database; no cut-off is given here.", "data": [{"smiles": "CC(C)=CCn1c2ccccc2c2c(OCC(O)CNC(=N)N)cccc21", "note": "(stereo unspecified)", "values": [{"measurement": "MIC", "setting": "[1]", "result": 1.56, "unit": "µg/mL"}, {"measurement": "MIC", "setting": "[2]", "result": 0.78, "unit": "µg/mL"}, {"measurement": "MIC", "setting": "[3]", "result": 1.56, "unit": "µg/mL"}, {"measurement": "HC50 at 1 h", "setting": "[4]", "result": "> 200", "unit": "µg/mL"}, {"measurement": "selectivity ratio", "setting": "[5]", "result": "> 128"}, {"measurement": "selectivity ratio", "setting": "[6]", "result": "> 128"}, {"measurement": "selectivity ratio", "setting": "[7]", "result": "> 128"}, {"measurement": "hemolysis at 1 h, 200 ug/ml", "setting": "[8]", "result": 3.5, "unit": "%"}, {"measurement": "log(activity)", "setting": "[9]", "result": 3.21}, {"measurement": "log(activity)", "setting": "[10]", "result": 3.45}, {"measurement": "Activity", "setting": "[11]", "result": "Active"}, {"measurement": "Activity", "setting": "[12]", "result": "Dose-dependent effect"}, {"measurement": "Activity", "setting": "[13]", "result": "Dose-dependent effect"}, {"measurement": "Activity", "setting": "[14]", "result": "Active"}, {"measurement": "Activity", "setting": "[15]", "result": "Active"}, {"measurement": "Activity", "setting": "[16]", "result": "Active"}, {"measurement": "Activity", "setting": "[17]", "result": "Active"}, {"measurement": "MIC", "setting": "[18]", "result": 1.56, "unit": "µg/mL"}, {"measurement": "MIC", "setting": "[19]", "result": 1.56, "unit": "µg/mL"}, {"measurement": "inhibition", "setting": "[20]", "result": 12.9, "unit": "%"}, {"measurement": "inhibition", "setting": "[21]", "result": 22.3, "unit": "%"}, {"measurement": "inhibition", "setting": "[22]", "result": 28.8, "unit": "%"}, {"measurement": "inhibition", "setting": "[23]", "result": 35.8, "unit": "%"}, {"measurement": "viability at 24 h, 1.56 ug/ml", "setting": "[24]", "result": 88.3, "unit": "%"}, {"measurement": "viability at 24 h, 3.125 ug/ml", "setting": "[25]", "result": 87.9, "unit": "%"}, {"measurement": "viability at 24 h, 6.25 ug/ml", "setting": "[26]", "result": 85.3, "unit": "%"}, {"measurement": "viability at 24 h, 12.5 ug/ml", "setting": "[27]", "result": 75.1, "unit": "%"}, {"measurement": "viability at 24 h", "setting": "[28]", "result": 34.1, "unit": "%"}, {"measurement": "viability at 24 h, 50 ug/ml", "setting": "[29]", "result": 8.52, "unit": "%"}, {"measurement": "viability at 24 h, 100 ug/ml", "setting": "[30]", "result": 6.65, "unit": "%"}, {"measurement": "viability at 24 h, 1.56 ug/ml", "setting": "[31]", "result": 96.3, "unit": "%"}, {"measurement": "viability at 24 h, 3.125 ug/ml", "setting": "[32]", "result": 95, "unit": "%"}, {"measurement": "viability at 24 h, 6.25 ug/ml", "setting": "[33]", "result": 86.2, "unit": "%"}, {"measurement": "viability at 24 h, 12.5 ug/ml", "setting": "[34]", "result": 80.5, "unit": "%"}, {"measurement": "viability at 24 h, 25 ug/ml", "setting": "[35]", "result": 78.2, "unit": "%"}, {"measurement": "viability at 24 h, 50 ug/ml", "setting": "[36]", "result": 28.1, "unit": "%"}, {"measurement": "viability at 24 h, 100 ug/ml", "setting": "[37]", "result": 20.5, "unit": "%"}, {"measurement": "CC50 at 24 h", "setting": "[38]", "result": 23.8, "unit": "µg/mL"}, {"measurement": "CC50 at 24 h", "setting": "[39]", "result": 37.2, "unit": "µg/mL"}, {"measurement": "log(activity)", "setting": "[40]", "result": 4.17}, {"measurement": "Activity", "setting": "[41]", "result": "Non-Toxic"}]}]}
